Structures are written as SMILES. Values after ≈ are worked out from the molar mass of the structure shown. Active and inactive are the calls of the source. The rule behind the calls is not given here.

The target of data set [1] is T1, Histone H3 methyltransferase DOT1 variant d (Mus musculus) (UniProt Q679P4).
T1 sequence (whole entry): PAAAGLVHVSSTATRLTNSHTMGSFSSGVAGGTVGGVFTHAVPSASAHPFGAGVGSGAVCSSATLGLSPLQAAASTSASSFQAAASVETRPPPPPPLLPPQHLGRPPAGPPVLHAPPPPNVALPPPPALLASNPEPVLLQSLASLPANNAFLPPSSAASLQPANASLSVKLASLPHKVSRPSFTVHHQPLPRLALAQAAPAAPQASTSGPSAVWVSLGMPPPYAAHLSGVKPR
The data set can be described thus: Inhibition of DOT1L in mouse bone marrow cell transformed with MLL-AF9 cells assessed as reduction in H3K4me3 methylation at 1 to 30 uM measured after 6 days by Western blot analysis. It counts as cell-based. The note with it: dose 1-30 µM, time 6.0 day. For orientation: A western blot detects proteins with antibodies after separation by electrophoresis.

The target of data set [2] is T1, Histone H3 methyltransferase DOT1 variant d (Mus musculus). The data set can be described thus: Inhibition of DOT1L in mouse bone marrow cell transformed with MLL-AF9 cells assessed as reduction in H3K79 methylation measured after 6 days by Western blot analysis. The note with it: time 6.0 day. It counts as cell-based.
The target is the same in data set [3]. Put plainly: Inhibition of DOT1L in mouse bone marrow cell transformed with MLL-AF9 cells assessed as reduction in […] methylation at 1 to 30 uM measured after 6 days by Western blot analysis. The data set is classed as cell-based. As to conditions: dose 1-30 µM, time 6.0 day.
For data set [4], the target named is T2, Histone-lysine N-methyltransferase EHMT2 (Homo sapiens, UniProt Q96KQ7).
T2 sequence (Q96KQ7 whole entry): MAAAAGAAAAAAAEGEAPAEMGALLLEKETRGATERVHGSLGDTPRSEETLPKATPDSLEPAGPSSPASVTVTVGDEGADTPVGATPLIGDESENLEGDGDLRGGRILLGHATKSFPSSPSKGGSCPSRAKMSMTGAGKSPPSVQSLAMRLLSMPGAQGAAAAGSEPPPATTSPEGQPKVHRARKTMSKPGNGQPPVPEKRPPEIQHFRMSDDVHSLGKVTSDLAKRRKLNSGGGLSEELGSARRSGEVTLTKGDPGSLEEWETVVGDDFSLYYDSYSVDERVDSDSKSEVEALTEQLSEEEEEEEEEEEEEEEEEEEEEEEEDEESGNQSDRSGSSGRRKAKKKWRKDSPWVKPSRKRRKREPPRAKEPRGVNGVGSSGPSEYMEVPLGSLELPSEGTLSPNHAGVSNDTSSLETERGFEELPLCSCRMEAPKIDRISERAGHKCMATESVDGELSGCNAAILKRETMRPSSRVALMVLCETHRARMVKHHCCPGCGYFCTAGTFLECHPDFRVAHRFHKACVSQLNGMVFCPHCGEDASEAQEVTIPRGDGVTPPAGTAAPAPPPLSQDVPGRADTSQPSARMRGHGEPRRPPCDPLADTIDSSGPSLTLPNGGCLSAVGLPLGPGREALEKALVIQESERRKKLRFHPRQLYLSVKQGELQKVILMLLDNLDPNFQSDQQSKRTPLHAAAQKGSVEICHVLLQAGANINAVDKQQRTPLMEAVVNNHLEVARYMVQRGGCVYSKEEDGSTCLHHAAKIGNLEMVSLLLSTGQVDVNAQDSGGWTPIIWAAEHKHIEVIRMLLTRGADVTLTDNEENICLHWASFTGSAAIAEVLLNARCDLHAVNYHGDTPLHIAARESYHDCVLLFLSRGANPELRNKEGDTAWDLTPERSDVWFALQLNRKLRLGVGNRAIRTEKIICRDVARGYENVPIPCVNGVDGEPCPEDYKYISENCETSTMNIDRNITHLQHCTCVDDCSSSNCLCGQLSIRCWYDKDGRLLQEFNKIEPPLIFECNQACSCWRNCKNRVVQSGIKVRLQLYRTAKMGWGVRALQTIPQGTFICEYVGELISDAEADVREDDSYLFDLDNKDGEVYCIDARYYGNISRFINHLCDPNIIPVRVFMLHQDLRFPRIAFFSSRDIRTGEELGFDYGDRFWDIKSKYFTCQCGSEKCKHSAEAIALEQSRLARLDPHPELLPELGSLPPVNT
Put plainly: Inhibition of recombinant human G9a using histone H3 (1 to 21) as substrate by hotspot assay.

Data set [5] deals with Bone marrow cell. The data set can be described thus: Antiproliferative activity against mouse bone marrow cell transformed with MLL-AF9 assessed as reduction in cell growth measured after 6 days by hemocytometry. The data set is classed as functional, cell-based. As to conditions: 144 h.
Data set [6] has as its system Bone marrow cell. Put plainly: Antiproliferative activity against mouse bone marrow cell transformed with MLL-AF9 assessed as reduction in cell growth measured after 9 days by hemocytometry. It counts as functional, cell-based. As to conditions: 216 h.
Data set [7] deals with T3, Histone-lysine N-methyltransferase SETD7 (Homo sapiens, UniProt Q8WTS6).
T3 sequence (Q8WTS6 whole entry): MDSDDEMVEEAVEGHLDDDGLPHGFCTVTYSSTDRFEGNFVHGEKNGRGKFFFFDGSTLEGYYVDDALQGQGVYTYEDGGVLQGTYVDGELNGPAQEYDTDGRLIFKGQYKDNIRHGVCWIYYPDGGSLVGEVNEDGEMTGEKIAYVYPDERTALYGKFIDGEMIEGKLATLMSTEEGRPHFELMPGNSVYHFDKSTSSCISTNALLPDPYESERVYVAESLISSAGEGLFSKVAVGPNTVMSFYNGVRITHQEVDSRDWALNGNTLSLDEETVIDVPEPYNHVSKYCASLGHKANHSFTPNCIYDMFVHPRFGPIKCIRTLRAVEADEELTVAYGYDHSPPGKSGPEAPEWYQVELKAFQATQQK
Put plainly: Inhibition of recombinant human SET7/9 using core histone as substrate by hotspot assay.

The target of data set [8] is Histone-lysine N-methyltransferase, H3 lysine-79 specific (Homo sapiens, UniProt Q8TEK3). The data set can be described thus: Inhibition of recombinant human N-terminal GST-tagged DOT1L (1 to 420 residues) expressed in Escherichia coli BL21 (DE3) using histone as substrate incubated for 1 hr by MTase-glo based luminescence assay.
Sequence of Histone-lysine N-methyltransferase, H3 lysine-79 specific (Q8TEK3 whole entry, the tested form may be a part): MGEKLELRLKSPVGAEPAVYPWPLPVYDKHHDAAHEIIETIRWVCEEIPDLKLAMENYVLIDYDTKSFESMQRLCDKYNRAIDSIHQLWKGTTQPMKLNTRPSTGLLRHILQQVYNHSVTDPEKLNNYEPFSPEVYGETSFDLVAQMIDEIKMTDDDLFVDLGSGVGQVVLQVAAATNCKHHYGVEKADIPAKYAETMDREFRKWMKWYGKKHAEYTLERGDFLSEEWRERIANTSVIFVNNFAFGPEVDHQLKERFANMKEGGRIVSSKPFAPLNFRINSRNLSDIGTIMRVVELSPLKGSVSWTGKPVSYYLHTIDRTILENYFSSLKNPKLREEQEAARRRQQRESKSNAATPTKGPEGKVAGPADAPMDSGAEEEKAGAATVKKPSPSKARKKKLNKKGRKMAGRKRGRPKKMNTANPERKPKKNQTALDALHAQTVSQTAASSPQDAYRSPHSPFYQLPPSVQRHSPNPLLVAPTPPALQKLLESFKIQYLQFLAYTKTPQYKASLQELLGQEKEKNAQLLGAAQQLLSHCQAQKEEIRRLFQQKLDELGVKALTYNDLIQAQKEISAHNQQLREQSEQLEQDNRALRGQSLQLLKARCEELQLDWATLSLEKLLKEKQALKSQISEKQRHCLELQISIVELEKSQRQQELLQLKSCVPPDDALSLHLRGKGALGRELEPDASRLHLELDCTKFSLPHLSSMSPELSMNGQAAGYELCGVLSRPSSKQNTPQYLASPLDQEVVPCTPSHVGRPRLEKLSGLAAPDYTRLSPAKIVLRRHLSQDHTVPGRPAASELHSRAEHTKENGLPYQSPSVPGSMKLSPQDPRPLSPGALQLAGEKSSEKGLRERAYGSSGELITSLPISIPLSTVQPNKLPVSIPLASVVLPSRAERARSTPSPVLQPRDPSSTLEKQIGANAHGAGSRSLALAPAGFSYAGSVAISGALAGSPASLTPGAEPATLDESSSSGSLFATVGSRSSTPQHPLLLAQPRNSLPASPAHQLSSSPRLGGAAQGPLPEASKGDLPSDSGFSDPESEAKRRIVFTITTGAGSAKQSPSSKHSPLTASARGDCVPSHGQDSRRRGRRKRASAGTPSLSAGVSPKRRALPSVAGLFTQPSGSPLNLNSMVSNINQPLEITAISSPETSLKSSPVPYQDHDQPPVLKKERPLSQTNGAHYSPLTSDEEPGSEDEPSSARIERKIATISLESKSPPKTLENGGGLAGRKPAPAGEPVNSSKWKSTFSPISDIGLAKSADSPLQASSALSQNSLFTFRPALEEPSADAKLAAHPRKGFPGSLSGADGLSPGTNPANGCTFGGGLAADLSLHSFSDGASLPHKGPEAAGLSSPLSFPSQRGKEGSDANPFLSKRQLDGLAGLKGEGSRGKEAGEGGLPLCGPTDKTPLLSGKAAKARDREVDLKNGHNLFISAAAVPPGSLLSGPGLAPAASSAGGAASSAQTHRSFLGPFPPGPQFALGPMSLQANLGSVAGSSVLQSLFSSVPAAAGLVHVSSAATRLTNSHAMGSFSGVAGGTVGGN
The target of data set [9] is Protein arginine N-methyltransferase 3 (Homo sapiens, UniProt O60678). Put plainly: Inhibition of recombinant human PRMT3 using histone H4 as substrate by hotspot assay. As to conditions: read-out: IC50.
Sequence of Protein arginine N-methyltransferase 3 (O60678 whole entry): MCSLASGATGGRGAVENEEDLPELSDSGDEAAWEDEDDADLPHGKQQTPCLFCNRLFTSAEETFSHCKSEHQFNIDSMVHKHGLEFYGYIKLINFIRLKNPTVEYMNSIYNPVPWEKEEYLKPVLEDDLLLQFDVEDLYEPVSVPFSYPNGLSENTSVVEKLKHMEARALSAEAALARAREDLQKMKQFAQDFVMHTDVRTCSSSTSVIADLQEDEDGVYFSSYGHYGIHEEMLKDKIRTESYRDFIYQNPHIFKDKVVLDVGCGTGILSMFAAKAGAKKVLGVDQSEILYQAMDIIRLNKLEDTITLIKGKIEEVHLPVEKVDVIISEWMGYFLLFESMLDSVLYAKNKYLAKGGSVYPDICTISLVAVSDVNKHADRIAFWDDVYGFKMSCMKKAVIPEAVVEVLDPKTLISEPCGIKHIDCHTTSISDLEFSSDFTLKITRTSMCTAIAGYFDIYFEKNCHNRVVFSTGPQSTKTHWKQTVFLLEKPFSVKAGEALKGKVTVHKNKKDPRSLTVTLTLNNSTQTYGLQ
Data set [10] is described as follows: Aqueous solubility of compound. It counts as physicochemical.
Data set [11] deals with Protein arginine N-methyltransferase 5 (Homo sapiens, UniProt O14744). The data set can be described thus: Inhibition of recombinant human PRMT5 using histone H2A as substrate by hotspot assay. As to conditions: read-out: IC50.
Sequence of Protein arginine N-methyltransferase 5 (O14744 whole entry): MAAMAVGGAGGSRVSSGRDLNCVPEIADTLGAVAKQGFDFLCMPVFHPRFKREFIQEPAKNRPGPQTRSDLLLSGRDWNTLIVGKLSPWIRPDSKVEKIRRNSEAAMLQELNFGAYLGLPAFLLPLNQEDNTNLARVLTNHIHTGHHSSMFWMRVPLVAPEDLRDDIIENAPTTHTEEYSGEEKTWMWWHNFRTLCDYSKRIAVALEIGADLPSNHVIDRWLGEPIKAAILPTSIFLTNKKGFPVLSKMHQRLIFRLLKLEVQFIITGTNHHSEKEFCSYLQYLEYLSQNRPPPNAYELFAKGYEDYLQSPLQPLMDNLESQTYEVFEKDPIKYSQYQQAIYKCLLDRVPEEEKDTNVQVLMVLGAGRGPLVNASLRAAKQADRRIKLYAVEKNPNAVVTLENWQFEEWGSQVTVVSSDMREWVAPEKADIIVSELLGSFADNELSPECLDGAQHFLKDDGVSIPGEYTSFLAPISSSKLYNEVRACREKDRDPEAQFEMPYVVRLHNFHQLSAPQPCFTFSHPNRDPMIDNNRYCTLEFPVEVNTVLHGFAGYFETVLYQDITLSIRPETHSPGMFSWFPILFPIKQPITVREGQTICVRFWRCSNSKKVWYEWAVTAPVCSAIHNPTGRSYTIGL

In general, IC50 refers to the midpoint of a concentration-inhibition curve. For orientation: solubility means how much of the substance goes into solution per volume. With `CC(C)(C)c1ccc(NC(=O)c2ncn(CC(=O)NCCn3ccc4c(N)ncnc43)n2)cc1`, the inhibition result in data set [1] and in data set [3] was “inactive” in each case. Also, the inhibition result in [2] is “Dose-dependent effect”. Moreover, the IC50 result was “Not Active” in data set [4]; 8.8 µM with Bone marrow cell [5]; 4.2 µM with Bone marrow cell [6]; “Not Active” in [7]; 1 µM in data set [8]; 115 µM in data set [9]. Also, the IC50 in data set [11] is 165 µM. In data set [10], the concentration in solution (solubility) was 687 µM (≈ 317 µg/mL).
